From ChEMBL document CHEMBL5625247, “Tetrahydro-β-carboline derivatives as potent histone deacetylase 6 inhibitors with broad-spectrum antiproliferative activity” (Eur J Med Chem, 2023)
Active and inactive are the calls of the source. The rule behind the calls is not given here.

Columns and labels:
LOX IMVI = assay: Antiproliferative activity against human LOX IMVI cells assessed as cell growth inhibition incubated for 72 hrs by alamar blue dye based assay; type: functional
MDA-MB-435 = assay: Antiproliferative activity against human MDA-MB-435 cells assessed as cell growth inhibition incubated for 72 hrs by alamar blue dye based assay; type: functional
SK-MEL-2 = assay: Antiproliferative activity against human SK-MEL-2 cells assessed as cell growth inhibition incubated for 72 hrs by alamar blue dye based assay; type: functional
Histone deacetylase 1 = Histone deacetylase 1 (Homo sapiens, UniProt Q13547); assay: Inhibition of HDAC1 (unknown origin) expressed in baculovirus infected in Sf9 cells using RHKKAc as substrate at 500 nM preincubated for 5 to 10 mins followed by substrate addition measured after 2 hrs by fluorescence based assay relative to control; conditions: time 5-130 min
MCF7 = assay: Antiproliferative activity against human MCF7 cells assessed as cell growth inhibition incubated for 72 hrs by alamar blue dye based assay; type: functional
NCI-H322M = assay: Antiproliferative activity against human NCI-H322M cells assessed as cell growth inhibition incubated for 72 hrs by alamar blue dye based assay; type: functional
U-251 = assay: Antiproliferative activity against human U-251 cells assessed as cell growth inhibition incubated for 72 hrs by alamar blue dye based assay; type: functional
UACC-257 = assay: Antiproliferative activity against human UACC-257 cells assessed as cell growth inhibition incubated for 72 hrs by alamar blue dye based assay; type: functional
HOP-62 = assay: Antiproliferative activity against human HOP-62 cells assessed as cell growth inhibition incubated for 72 hrs by alamar blue dye based assay; type: functional
UO-31 = assay: Antiproliferative activity against human UO-31 cells assessed as cell growth inhibition incubated for 72 hrs by alamar blue dye based assay; type: functional
ACHN = assay: Antiproliferative activity against human ACHN cells assessed as cell growth inhibition incubated for 72 hrs by alamar blue dye based assay; type: functional
SF-268 = assay: Antiproliferative activity against human SF-268 cells assessed as cell growth inhibition incubated for 72 hrs by alamar blue dye based assay; type: functional
A498 = assay: Antiproliferative activity against human A498 cells assessed as cell growth inhibition incubated for 72 hrs by alamar blue dye based assay; type: functional
SW-620 = assay: Antiproliferative activity against human SW620 cells assessed as cell growth inhibition incubated for 72 hrs by alamar blue dye based assay; type: functional
HCT-15 = assay: Antiproliferative activity against human HCT-15 cells assessed as cell growth inhibition incubated for 72 hrs by alamar blue dye based assay; type: functional
TK-10 = assay: Antiproliferative activity against human TK-10 cells assessed as cell growth inhibition incubated for 72 hrs by alamar blue dye based assay; type: functional
Histone deacetylase 11 = Histone deacetylase 11 (Homo sapiens, UniProt Q96DB2); assay: Inhibition of HDAC11 (unknown origin) expressed in baculovirus infected in Sf9 cells using RHKKAc as substrate preincubated for 5 to 10 mins followed by substrate addition measured after 2 hrs by fluorescence based assay
Histone deacetylase 4 = Histone deacetylase 4 (Homo sapiens, UniProt P56524); assay: Inhibition of HDAC4 (unknown origin) expressed in baculovirus infected in Sf9 cells using RHKKAc as substrate preincubated for 5 to 10 mins followed by substrate addition measured after 2 hrs by fluorescence based assay
[1] = target: T1, Protein deacetylase HDAC6 (Homo sapiens) (UniProt Q9UBN7); assay: Inhibition of HDAC6 in human RPMI-8226 cells assessed as increase in histone H3 acetylation at 1 to 10 uM incubated for 24 hrs by Western blot analysis; type: cell-based; conditions: dose 1-10 µM
T1 sequence (whole entry): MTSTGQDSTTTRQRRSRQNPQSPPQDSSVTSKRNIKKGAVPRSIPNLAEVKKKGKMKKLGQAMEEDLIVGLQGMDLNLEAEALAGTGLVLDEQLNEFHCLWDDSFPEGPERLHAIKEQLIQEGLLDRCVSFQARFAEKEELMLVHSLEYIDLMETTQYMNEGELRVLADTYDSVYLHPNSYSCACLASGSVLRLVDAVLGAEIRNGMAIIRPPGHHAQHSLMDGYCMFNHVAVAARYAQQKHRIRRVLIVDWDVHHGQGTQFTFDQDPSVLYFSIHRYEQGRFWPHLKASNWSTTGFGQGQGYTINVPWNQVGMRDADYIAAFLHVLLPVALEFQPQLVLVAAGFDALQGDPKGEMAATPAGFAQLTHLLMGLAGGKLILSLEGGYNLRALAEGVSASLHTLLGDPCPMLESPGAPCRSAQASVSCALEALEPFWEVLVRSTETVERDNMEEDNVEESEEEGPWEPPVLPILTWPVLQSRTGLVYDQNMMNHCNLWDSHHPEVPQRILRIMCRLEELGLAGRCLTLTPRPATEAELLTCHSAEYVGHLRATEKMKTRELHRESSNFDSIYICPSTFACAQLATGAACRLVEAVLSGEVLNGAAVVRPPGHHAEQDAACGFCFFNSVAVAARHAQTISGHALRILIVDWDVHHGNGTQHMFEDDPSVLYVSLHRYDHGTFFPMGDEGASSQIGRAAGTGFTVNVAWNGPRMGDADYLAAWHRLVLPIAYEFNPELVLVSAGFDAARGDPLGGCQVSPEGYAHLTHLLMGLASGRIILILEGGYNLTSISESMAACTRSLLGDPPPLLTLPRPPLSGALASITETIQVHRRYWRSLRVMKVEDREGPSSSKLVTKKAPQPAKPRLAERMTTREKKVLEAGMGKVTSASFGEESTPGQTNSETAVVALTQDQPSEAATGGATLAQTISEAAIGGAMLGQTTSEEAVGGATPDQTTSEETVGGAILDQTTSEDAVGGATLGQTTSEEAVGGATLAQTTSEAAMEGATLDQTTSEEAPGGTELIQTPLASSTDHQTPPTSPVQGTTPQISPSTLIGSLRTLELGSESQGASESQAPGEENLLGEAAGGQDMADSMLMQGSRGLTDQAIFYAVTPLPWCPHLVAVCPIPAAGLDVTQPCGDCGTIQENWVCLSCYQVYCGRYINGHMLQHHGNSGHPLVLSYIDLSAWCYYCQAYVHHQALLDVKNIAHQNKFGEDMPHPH

Histone deacetylase 3 = Histone deacetylase 3 (Homo sapiens, UniProt O15379); assay: Inhibition of HDAC3 (unknown origin) expressed in baculovirus infected in Sf9 cells using RHKKAc as substrate preincubated for 5 to 10 mins followed by substrate addition measured after 2 hrs by fluorescence based assay
[2] = Half life in Sprague-Dawley rat at 0.2 mg/kg, iv by LC-MS/MS analysis; type: ADME, organism-based; conditions: in vivo
[3] = Clearance in Sprague-Dawley rat at 0.2 mg/kg, iv by LC-MS/MS analysis; type: ADME, organism-based; conditions: in vivo
Histone deacetylase 8 = Histone deacetylase 8 (Homo sapiens, UniProt Q9BY41); assay: Inhibition of HDAC8 (unknown origin) expressed in baculovirus infected in Sf9 cells using RHKKAc as substrate preincubated for 5 to 10 mins followed by substrate addition measured after 2 hrs by fluorescence based assay
[4] = target: T1, Protein deacetylase HDAC6 (Homo sapiens); assay: Inhibition of HDAC6 in human RPMI-8226 cells assessed as increase in alpha-tubulin acetylation at 1 to 10 uM incubated for 24 hrs by Western blot analysis; type: cell-based; conditions: dose 1-10 µM
[5] = Cmax in Sprague-Dawley rat at 0.2 mg/kg, iv by LC-MS/MS analysis; type: ADME, organism-based; conditions: in vivo

Chain of Histone deacetylase 3 (O15379 whole entry): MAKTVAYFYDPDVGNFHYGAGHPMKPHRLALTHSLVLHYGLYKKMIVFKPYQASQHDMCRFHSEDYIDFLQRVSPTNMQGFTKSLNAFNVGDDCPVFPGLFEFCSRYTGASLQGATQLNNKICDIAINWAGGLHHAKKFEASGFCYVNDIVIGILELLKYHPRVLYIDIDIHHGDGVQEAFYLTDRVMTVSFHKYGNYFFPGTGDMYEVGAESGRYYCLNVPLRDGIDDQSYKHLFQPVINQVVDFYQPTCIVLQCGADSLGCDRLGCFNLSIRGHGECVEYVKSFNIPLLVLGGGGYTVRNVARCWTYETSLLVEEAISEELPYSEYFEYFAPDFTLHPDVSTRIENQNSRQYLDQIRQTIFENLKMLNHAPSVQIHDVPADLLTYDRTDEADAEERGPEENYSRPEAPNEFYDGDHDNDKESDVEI
Chain of Histone deacetylase 1 (Q13547 whole entry): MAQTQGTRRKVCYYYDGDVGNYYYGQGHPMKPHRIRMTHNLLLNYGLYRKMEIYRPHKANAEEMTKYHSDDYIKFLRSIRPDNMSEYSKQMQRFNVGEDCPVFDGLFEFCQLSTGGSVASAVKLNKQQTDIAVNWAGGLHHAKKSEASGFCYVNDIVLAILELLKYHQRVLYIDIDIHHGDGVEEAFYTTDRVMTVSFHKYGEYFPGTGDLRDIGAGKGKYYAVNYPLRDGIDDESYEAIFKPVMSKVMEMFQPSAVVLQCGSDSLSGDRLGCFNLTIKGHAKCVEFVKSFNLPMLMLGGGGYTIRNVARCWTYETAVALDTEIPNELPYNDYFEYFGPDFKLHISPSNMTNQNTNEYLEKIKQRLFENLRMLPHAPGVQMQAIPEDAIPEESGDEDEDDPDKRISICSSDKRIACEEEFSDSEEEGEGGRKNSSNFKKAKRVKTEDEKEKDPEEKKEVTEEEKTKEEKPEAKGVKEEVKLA
Chain of Histone deacetylase 11 (Q96DB2 whole entry): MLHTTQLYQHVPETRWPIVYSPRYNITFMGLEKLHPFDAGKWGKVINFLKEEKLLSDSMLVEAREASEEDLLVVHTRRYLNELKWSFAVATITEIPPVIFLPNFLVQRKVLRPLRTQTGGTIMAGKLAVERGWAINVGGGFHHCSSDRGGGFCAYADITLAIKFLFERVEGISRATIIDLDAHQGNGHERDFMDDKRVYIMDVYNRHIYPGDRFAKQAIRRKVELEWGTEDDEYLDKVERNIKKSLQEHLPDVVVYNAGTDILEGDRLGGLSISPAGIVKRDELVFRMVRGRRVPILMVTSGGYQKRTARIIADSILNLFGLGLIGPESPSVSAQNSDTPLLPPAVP
Chain of Histone deacetylase 4 (P56524 whole entry): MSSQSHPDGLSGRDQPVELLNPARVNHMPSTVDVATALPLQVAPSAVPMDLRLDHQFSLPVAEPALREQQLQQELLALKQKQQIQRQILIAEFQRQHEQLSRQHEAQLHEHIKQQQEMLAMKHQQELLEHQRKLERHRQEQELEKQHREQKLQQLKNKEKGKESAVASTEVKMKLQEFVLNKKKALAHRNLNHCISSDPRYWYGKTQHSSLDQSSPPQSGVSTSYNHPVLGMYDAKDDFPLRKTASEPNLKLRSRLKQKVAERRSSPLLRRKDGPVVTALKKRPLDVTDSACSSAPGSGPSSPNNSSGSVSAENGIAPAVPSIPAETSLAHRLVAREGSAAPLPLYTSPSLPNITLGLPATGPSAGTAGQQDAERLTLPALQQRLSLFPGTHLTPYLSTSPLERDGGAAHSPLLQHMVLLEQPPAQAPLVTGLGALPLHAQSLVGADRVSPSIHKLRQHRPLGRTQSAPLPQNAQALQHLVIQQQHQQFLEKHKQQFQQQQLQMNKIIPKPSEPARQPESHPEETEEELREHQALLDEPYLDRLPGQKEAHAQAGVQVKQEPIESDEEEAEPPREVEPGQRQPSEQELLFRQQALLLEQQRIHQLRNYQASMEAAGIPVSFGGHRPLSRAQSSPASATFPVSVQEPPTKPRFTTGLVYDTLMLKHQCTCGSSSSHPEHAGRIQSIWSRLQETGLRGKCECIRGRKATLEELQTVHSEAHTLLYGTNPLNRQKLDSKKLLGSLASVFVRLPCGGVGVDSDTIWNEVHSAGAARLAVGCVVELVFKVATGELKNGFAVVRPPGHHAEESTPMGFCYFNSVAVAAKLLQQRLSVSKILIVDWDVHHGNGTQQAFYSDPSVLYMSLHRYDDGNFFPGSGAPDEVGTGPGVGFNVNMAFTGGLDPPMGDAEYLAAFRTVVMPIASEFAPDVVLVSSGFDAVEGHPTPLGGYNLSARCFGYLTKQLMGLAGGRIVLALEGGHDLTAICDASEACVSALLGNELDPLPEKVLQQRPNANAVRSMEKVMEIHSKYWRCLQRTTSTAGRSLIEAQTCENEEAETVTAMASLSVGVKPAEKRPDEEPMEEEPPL
Chain of Histone deacetylase 8 (Q9BY41 whole entry): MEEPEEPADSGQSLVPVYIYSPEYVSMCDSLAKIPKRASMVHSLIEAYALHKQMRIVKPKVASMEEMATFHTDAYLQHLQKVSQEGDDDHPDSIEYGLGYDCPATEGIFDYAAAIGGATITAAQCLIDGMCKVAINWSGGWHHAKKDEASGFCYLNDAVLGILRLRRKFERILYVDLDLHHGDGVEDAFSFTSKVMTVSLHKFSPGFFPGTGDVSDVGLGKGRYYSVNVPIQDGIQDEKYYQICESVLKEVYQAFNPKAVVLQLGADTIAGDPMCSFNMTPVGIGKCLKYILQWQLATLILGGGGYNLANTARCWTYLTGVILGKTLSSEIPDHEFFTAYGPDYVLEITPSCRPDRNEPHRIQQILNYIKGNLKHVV

COc1ccc(CN2[C@@H](C(=O)NCc3ccc(C(=O)NO)cc3)Cc3c([nH]c4ccccc34)[C@@H]2C2CC2)cc1
GI50 (LOX IMVI): 2370 nM
GI50 (MDA-MB-435): 638 nM
GI50 (SK-MEL-2): 4110 nM
inhibition (Histone deacetylase 1): 83.4%
GI50 (MCF7): 2330 nM
GI50 (NCI-H322M): 4250 nM
GI50 (U-251): 2660 nM
GI50 (UACC-257): 2390 nM
GI50 (HOP-62): 3480 nM
GI50 (UO-31): 3000 nM
GI50 (ACHN): 3520 nM
GI50 (SF-268): 4400 nM
GI50 (A498): 2770 nM
GI50 (SW-620): 2260 nM
GI50 (HCT-15): 3750 nM
GI50 (TK-10): 3170 nM

O=C(NO)c1ccc(CNC(=O)[C@H]2Cc3c([nH]c4ccccc34)[C@H](c3ccc(Cl)cc3)N2)cc1
GI50 (LOX IMVI): 1090 nM
GI50 (MDA-MB-435): 959 nM
IC50 (Histone deacetylase 11): 2100 nM
GI50 (SK-MEL-2): 2770 nM
GI50 (MCF7): 874 nM
IC50 (Histone deacetylase 4): > 50000 nM
inhibition [1]: Active
IC50 (Histone deacetylase 3): 103 nM
half-life [2]: 3.38 h
GI50 (NCI-H322M): 1620 nM
GI50 (U-251): 1210 nM
clearance [3]: 4.4 mL/min/kg
IC50 (Histone deacetylase 8): 292 nM
GI50 (UACC-257): 1230 nM
GI50 (HOP-62): 1270 nM
GI50 (UO-31): 2640 nM
GI50 (ACHN): 3050 nM
GI50 (SF-268): 2920 nM
GI50 (A498): 2060 nM
GI50 (SW-620): 687 nM
GI50 (HCT-15): 4260 nM
inhibition [4]: Active
Cmax [5]: 1020 nM
GI50 (TK-10): 1510 nM
